Test results published in patent US7087631B2, “Aryltetrazole compounds, and compositions thereof” (Inotek Pharmaceuticals Corporation, priority 2002, dated 2006).

Columns and labels:
severe hemorrhagic shock = details: canine, cited from earlier work; for benefit (survival): given alone after shock had been produced
hemorrhagic shock = details: canine model of hemorrhagic shock; cited from earlier work
gut ischemia reperfusion = test: Gut ischemia reperfusion-induced hyperpermeability and mortality; assay type: in vivo; details: mice, 30 mg/kg
Experimental: Illustrative 5-Aryltetrazole Compounds exert protective effects in various models of organ ischemia and reperfusion. For example, intraperitoneal administration of illustrative 5-Aryltetrazole Compounds retards the progression of gut ischemia reperfusion-induced hyperpermeability and mortality in mice. Results are expressed as % decrease in gut hyperpermeability and as mortality as observed after 6 hours and 2 days of reperfusion. Studies were conducted as described in Shock, 14(2): 134-141 (2000). There was a notable dose-dependent effect on gut hyperpermeability and there was an improvement in survival rate, as tested at the highest dose of both levels.

[1] = tested on: collagen-induced arthritis; test: Collagen-induced arthritis; assay type: in vivo; details: mice; for % Incidence / Mean Severity: collagen-induced arthritis
Experimental: An illustrative 5-Aryltetrazole Compound exerts protective effects in a model of collagen-induced arthritis in mice. Results are expressed as incidence and severity over time. Studies were conducted as described in Inflamm. Res. 50(11):561-569 (2001). The results illustrate that the administration of Compound JO, an illustrative 5-Aryltetrazole Compound, reduced incidence of collagen-induced arthritis in mice.

[2] = tested on: thioacetamide model of hepatic failure; test: Toxic liver injury model (thioacetamide model of hepatic failure), serum AST; assay type: in vivo; details: mice, thioacetamide 400 mg/kg i.p., mean ±SEM (n=7-10)
Experimental: Illustrative 5-Aryltetrazole Compounds exert hepatoprotective effects in a thioacetamide model of hepatic failure. […] […] Results are expressed as percent inhibtion, mean ±SEM (n=7-10). Studies were conducted as described in Biochim. Biophys. Acta. 1536(1):21-30 (2001).

xanthine oxidase = xanthine oxidase (Homo sapiens, UniProt P47989); test: Xanthine oxidase inhibitory activity, 96 well plate, kinetic reading at 295 nm; assay type: biochemical
Chain of xanthine oxidase (P47989 whole entry, species assumed): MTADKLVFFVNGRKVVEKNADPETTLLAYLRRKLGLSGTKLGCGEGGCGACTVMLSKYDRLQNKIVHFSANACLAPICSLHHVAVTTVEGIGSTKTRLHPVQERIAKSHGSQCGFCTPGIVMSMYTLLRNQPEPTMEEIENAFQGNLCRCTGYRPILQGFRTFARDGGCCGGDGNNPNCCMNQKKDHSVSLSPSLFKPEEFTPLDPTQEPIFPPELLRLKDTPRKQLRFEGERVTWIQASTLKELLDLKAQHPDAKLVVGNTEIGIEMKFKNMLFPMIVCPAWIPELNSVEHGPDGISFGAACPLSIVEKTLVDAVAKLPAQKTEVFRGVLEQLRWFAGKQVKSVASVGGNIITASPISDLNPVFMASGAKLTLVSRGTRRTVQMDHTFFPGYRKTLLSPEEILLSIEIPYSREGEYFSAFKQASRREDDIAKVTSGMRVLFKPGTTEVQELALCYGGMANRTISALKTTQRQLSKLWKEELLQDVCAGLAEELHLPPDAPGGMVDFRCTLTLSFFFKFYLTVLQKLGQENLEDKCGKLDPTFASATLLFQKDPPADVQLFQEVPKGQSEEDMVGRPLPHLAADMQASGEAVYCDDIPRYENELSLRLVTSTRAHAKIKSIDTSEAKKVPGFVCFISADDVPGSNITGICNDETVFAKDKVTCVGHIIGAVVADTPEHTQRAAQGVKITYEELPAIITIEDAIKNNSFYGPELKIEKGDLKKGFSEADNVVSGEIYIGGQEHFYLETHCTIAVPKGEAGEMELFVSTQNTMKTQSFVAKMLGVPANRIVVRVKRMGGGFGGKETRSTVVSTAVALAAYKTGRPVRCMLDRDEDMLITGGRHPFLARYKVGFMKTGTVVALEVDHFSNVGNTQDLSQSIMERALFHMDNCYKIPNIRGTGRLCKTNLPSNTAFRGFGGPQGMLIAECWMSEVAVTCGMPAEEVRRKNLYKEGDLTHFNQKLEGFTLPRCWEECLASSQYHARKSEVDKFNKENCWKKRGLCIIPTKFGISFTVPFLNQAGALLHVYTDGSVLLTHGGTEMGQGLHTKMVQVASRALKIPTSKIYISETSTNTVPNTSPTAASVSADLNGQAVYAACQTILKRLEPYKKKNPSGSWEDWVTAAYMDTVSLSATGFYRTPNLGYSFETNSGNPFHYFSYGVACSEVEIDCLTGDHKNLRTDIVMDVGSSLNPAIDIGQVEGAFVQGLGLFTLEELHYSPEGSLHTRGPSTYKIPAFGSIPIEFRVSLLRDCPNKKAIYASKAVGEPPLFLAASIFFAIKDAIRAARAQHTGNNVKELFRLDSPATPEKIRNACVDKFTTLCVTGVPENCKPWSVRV

SMILES: O=c1[nH]cnc2nc[nH]c12 [hypoxanthine]
- benefit (survival) (severe hemorrhagic shock): no benefit

SMILES: Oc1ncnc2[nH]ncc12 [allopurinol]
- benefit (survival) (severe hemorrhagic shock): no benefit
- increase in survival (severe hemorrhagic shock; pre-treatment): 6 fold
- survival (result in words) (hemorrhagic shock): significantly improved survival

SMILES: CC(C)(C)c1ccc(NC(=O)c2ccc(-c3nnn[nH]3)cc2)cc1 [Compound JO]
- Survival % (6 h) (gut ischemia reperfusion; 6 hours of reperfusion, control 60): 87%
- Survival % (2 days) (gut ischemia reperfusion; 2 days of reperfusion, control 0): 13%
- Gut Permeability (gut ischemia reperfusion; intraperitoneal, control 100%): 39%
- incidence of collagen-induced arthritis (result in words) ([1]; after 33 days, versus untreated mice): significant decrease
- % Incidence ([1]; day 25): 20%
- Mean Severity ([1]; day 25): 0
- % Incidence ([1]; day 27): 35%
- Mean Severity ([1]; day 27): 0
- % Incidence ([1]; day 29): 45%
- Mean Severity ([1]; day 29): 3
- % Incidence ([1]; day 31): 75%
- Mean Severity ([1]; day 31): 8
- % Incidence ([1]; day 33): 85%
- Mean Severity ([1]; day 33): 8
- collagen-induced arthritis (result in words) ([1]; summary): inhibits collagen-induced arthritis
- Percent Inhibition of Serum AST Levels ([2]; single oral dose 3 mg/kg): 24 ± 9%
- Percent Inhibition of Serum AST Levels ([2]; single oral dose 10 mg/kg): 36 ± 12%
- PERCENT XANTHINE OXIDASE INHIBITION (xanthine oxidase; compound concentration 0.03 μM): 18%
- PERCENT XANTHINE OXIDASE INHIBITION (xanthine oxidase; compound concentration 0.1 μM): 36%
- PERCENT XANTHINE OXIDASE INHIBITION (xanthine oxidase; compound concentration 1 μM): 83%
